Test results as given in US20250099430A1, “PREVENTION OR TREATMENT OF SLEEP DISORDERS USING DEXMEDETOMIDINE FORMULATION” (BioXcel Therapeutics, Inc., priority 2014, published 2025).
Values joined by “and” are separate entries in the source; they are usually repeats but may differ in a detail not shown here. Equal entries are not always repeated. “Also recorded” adds a separate entry of the source.

Test system: Wistar rats
Experiment: Sleep promoting properties in Wistar rats, video monitoring of home cage activity (total sleep time, latency to sleep, number of sleep episodes)
Assay type: in vivo
Conditions: for Total Sleep time: 180 min recording
Procedure: Sublingual dexmedetomidine formulation of present invention was tested in rats for its ability to increase the amount of sleep or decrease sleep interruption or both without undesired effects. Test animals' activity was continuously monitored by using a video camera overhead and data analysed for latency of sleep, total sleep time and number of sleep episodes by using the NoldusEthovision-XT 11.
Male Wistar rats were approximately of the weight 180 g-220 g and age of about 5-7 weeks old. Animals were numbered and kept in acclimatization for a period of 5-7 days before the initiation of the experiment. All the experiments on animals were conducted in accordance with the guidelines of the Committee for the Purpose of Control and Supervision of Experiments on Animals (CPCSEA), Goveemment of India the Association for Assessment and Accreditation of Laboratory Animal Care intemational (AAALAC).
Recording Environment: Animals were housed group wise (three animals per cage) within a microisolator cage modified with an inserted polycarbonate filter-top riser to allow more vertical headroom. Animals were maintained on the normal rodent chow ad libitum and given free access to fresh autoclaved potable drinking water. Animals were kept in a controlled environmental condition with 22±3° C. temperature, 50±20% humidity, a light dark cycle of 12 hours each and 15-20 fresh air changes per hour.
Animal Groups: Wistar rats were randomly divided into different groups, each containing 6 animals. The study groups were divided as normal control group, vehicle control group, test compound groups and reference compound group.
Animals were weight once at randomization and each day thereafter. The animals were studied from day 1 till day 9. […] On day 3, animals were dosed with test compounds and respiratory parameters such as tidal volume, frequency of respiration: heart rate and blood pressure were recorded. On day 5 and day 6, animals were trained on the rotarod apparatus (4-40 rpm for 300 s). On day 7, animals were administered with test compounds and motor coordination was tested on rotarod at 3, 10, 17, 24 and 30 minutes post administration to establish a temporal scale of loss of motor activity and drowsiness. On day 9, animals were dosed with test compounds and blood was collected at 15, 30, 60 and 120 min post sublingual dosing to estimate plasma drug concentration of dexmedetomidine. All the animals were euthanized by CO2 inhalation on day 9. The animal in the satellite groups was dosed with test compounds and blood was collected on day 0 at 15, 30, 60, and 120 min post sublingual dosing to estimate plasma drug concentration of dexmedetomidine after first drug exposure.
The normal control group received no treatment: vehicle control group received 0.9% saline water; the test group received compound (dexmedetomidine), administered sublingually in different doses (dose 1-5.14 μg/kg of body weight, dose 2-10 μg/kg of body weight, dose 3-20 μg/kg of body weight, dose 4-30 μg/kg of body weight and dose 5-40 μg/kg of body weight) and also administered parenterally (dose 6-1.5 μg kg of body weight); and the reference compound (Zolpidem) was administered orally in dose of 30 mg/kg of body weight. The treatment was given such that no rat received the same treatment twice.
Total sleep time, latency to sleep and number of sleep episodes were measured: After administration of each dose to each group of animal, the latency to sleep, total sleep time and sleep episodes was recorded.
One way ANOVA test was applied for the comparison of the data from different groups for total sleep time, latency to sleep and number of sleep episodes.

[1] = Table 2, Dose 1 (5.14 μg/kg, SL)
[2] = Table 2, Dose 6 (1.5 μg/kg, I.V.)
[3] = group mean, Dose 1 (5.14 μg/kg Dexmedetomidine SL)
[4] = group mean, Dose 2 (10 μg/kg Dexmedetomidine SL)
[5] = group mean, Dose 3 (20 μg/kg Dexmedetomidine SL)
[6] = group mean, Dose 4 (30 μg/kg Dexmedetomidine SL)
[7] = group mean, Dose 5 (40 μg/kg Dexmedetomidine SL)
[8] = group mean, Dose 6 (1.5 μg/kg Dexmedetomidine I.V.)
[9] = individual animals, Dose 1 (5.14 μg/kg Dexmedetomidine SL)
[10] = individual animals, Dose 2 (10 μg/kg Dexmedetomidine SL)
[11] = individual animals, Dose 3 (20 μg/kg Dexmedetomidine SL)
[12] = individual animals, Dose 4 (30 μg/kg Dexmedetomidine SL)
[13] = individual animals, Dose 5 (40 μg/kg Dexmedetomidine SL)
[14] = individual animals, Dose 6 (1.5 μg/kg Dexmedetomidine I.V.)
[15] = parenteral dexmedetomidine (1.5 μg/kg, p.o.), compared to vehicle control
[16] = Table 2, Zolpidem (30 mg/kg, p.o.)
[17] = group mean, Zolpidem (30 mg/kg), orally
[18] = individual animals, Zolpidem (30 mg/kg), orally

`Cc1cccc([C@H](C)c2cnc[nH]2)c1C` [Dexmedetomidine, 5-[(1 S)-1-(2,3-dimethylphenyl)ethyl]-1 H-imidazole] was tested, and the “Latency to Sleep (Mean and SEM)” value [1] was 63.2, the “Number of Sleep Episodes (Mean and SEM)” value [1] was 2.33 and the “Total Sleep Time (Mean and SEM)” value [1] was 100.7. For the same molecule, the “Latency to Sleep (Mean and SEM)” value (Table 2, Dose 2 (10 μg/kg, SL)) was 21.0, the “Number of Sleep Episodes (Mean and SEM)” value (Table 2, Dose 2 (10 μg/kg, SL)) was 4.50 and the “Total Sleep Time (Mean and SEM)” value (Table 2, Dose 2 (10 μg/kg, SL)) was 130.1. The “Latency to Sleep (Mean and SEM)” value (Table 2, Dose 3 (20 μg/kg, SL)) was 12.7, the “Number of Sleep Episodes (Mean and SEM)” value (Table 2, Dose 3 (20 μg/kg, SL)) was 4.00 and the “Total Sleep Time (Mean and SEM)” value (Table 2, Dose 3 (20 μg/kg, SL)) was 150.2. For the same molecule, the “Latency to Sleep (Mean and SEM)” value (Table 2, Dose 4 (30 μg/kg, SL)) was 13.2, the “Number of Sleep Episodes (Mean and SEM)” value (Table 2, Dose 4 (30 μg/kg, SL)) was 2.50 and the “Total Sleep Time (Mean and SEM)” value (Table 2, Dose 4 (30 μg/kg, SL)) was 143.1. For the same molecule, the “Latency to Sleep (Mean and SEM)” value (Table 2, Dose 5 (40 μg/kg, SL)) was 16.7, the “Number of Sleep Episodes (Mean and SEM)” value (Table 2, Dose 5 (40 μg/kg, SL)) was 2.67 and the “Total Sleep Time (Mean and SEM)” value (Table 2, Dose 5 (40 μg/kg, SL)) was 169.7. The “Latency to Sleep (Mean and SEM)” value [2] was 25.4, the “Number of Sleep Episodes (Mean and SEM)” value [2] was 2.33 and the “Total Sleep Time (Mean and SEM)” value [2] was 137. For the same molecule, the “Latency to Sleep (Time of sleep onset), result in words” value (“Latency to Sleep (Time of sleep onset)” for short) (dexmedetomidine dosed sublingually at 10, 20, 30 & 40 μg/kg, compared to vehicle control) was “significantly lowered; also recorded: significantly reduced”, the “Number of sleep episodes, result in words” value (dexmedetomidine dosed sublingually, from 10, 20, 30 & 40 μg/kg, compared to vehicle control) was “gradually decreased” and the “Latency to Sleep” value [3] was 63.17. For the same molecule, the “Number of Sleep Episodes” value [3] was 2.33, the “Total Sleep time Normalized to Vehicle*” value [3] was 100.71 and the “Total Sleep time” value [3] was 47.67 min. The “Latency to Sleep” value [4] was 21.00, the “Number of Sleep Episodes” value [4] was 4.50 and the “Total Sleep time Normalized to Vehicle*” value [4] was 130.13. The “Total Sleep time” value [4] was 103.67 min, the “Latency to Sleep” value [5] was 12.67 and the “Number of Sleep Episodes” value [5] was 4.00. For the same molecule, the “Total Sleep time Normalized to Vehicle*” value [5] was 150.21, the “Total Sleep time” value [5] was 119.67 min and the “Latency to Sleep” value [6] was 13.17. For the same molecule, the “Number of Sleep Episodes” value [6] was 2.50, the “Total Sleep time Normalized to Vehicle*” value [6] was 143.10 and the “Total Sleep time” value [6] was 114.00 min. For the same molecule, the “Latency to Sleep” value [7] was 16.67, the “Number of Sleep Episodes” value [7] was 2.67 and the “Total Sleep time Normalized to Vehicle*” value [7] was 169.67. For the same molecule, the “Total Sleep time” value [7] was 135.17 min, the “Latency to Sleep” value [8] was 25.40 and the “Number of Sleep Episodes” value [8] was 2.33. For the same molecule, the “Total Sleep time Normalized to Vehicle*” value [8] was 136.98, the “Total Sleep time” value [8] was 64.83 min and the “Latency to Sleep” value [9] was 97 and 101 and 87 and 94 and 0 (2×). The “Number of Sleep Episodes” value [9] was 2 (2×) and 5 (2×) and 0 (2×), the “Total Sleep time Normalized to Vehicle*” value [9] was 184 and 203 and 125 and 93 and 0 (2×) and the “Total Sleep time” value [9] was 87 min and 96 min and 59 min and 44 min and 0 min (2×). The “Latency to Sleep” value [10] was 18 (2×) and 29 and 21 and 24 and 16, the “Number of Sleep Episodes” value [10] was 5 (4×) and 4 and 3 and the “Total Sleep time Normalized to Vehicle*” value [10] was 128 and 102 and 108 and 141 and 152 and 151. The “Total Sleep time” value [10] was 102 min and 81 min and 86 min and 112 min and 121 min and 120 min, the “Latency to Sleep” value [11] was 15 (2×) and 12 and 13 and 10 and 11 and the “Number of Sleep Episodes” value [11] was 5 and 3 and 4 (4×). For the same molecule, the “Total Sleep time Normalized to Vehicle*” value [11] was 133 and 174 and 143 and 142 and 181 and 128, the “Total Sleep time” value [11] was 106 min and 139 min and 114 min and 113 min and 144 min and 102 min and the “Latency to Sleep” value [12] was 11 (2×) and 23 and 8 and 10 and 16. For the same molecule, the “Number of Sleep Episodes” value [12] was 4 and 2 (4×) and 3, the “Total Sleep time Normalized to Vehicle*” value [12] was 162 and 127 and 158 (2×) and 136 and 118 and the “Total Sleep time” value [12] was 129 min and 101 min and 126 min (2×) and 108 min and 94 min. The “Latency to Sleep” value [13] was 16 (2×) and 17 and 18 and 13 and 20, the “Number of Sleep Episodes” value [13] was 2 (3×) and 4 and 3 (2×) and the “Total Sleep time Normalized to Vehicle*” value [13] was 181 and 134 and 186 and 190 and 159 and 168. The “Total Sleep time” value [13] was 144 min and 107 min and 148 min and 151 min and 127 min and 134 min, the “Latency to Sleep” value [14] was 18 and 27 and 26 and 24 and 85 and 32 and the “Number of Sleep Episodes” value [14] was 3 (3×) and 1 and 2 (2×). The “Total Sleep time Normalized to Vehicle*” value [14] was 180 and 184 and 95 and 129 and 177 and 57, the “Total Sleep time” value [14] was 85 min and 87 min and 45 min and 61 min and 84 min and 27 min and the “Latency to Sleep (Time of sleep onset)” value [15] was “significantly lowered”. For the same molecule, the “Number of sleep episodes, result in words” value [15] was “gradually decreased”, the “Total sleep time, result in words” value (sublingual dexmedetomidine at dose range of 10 to 40 μg/kg) was “no significant increase; also recorded: not significantly affecting” and the “Total Sleep Time (total duration of sleep in 180 min.), result in words” value (sublingual dexmedetomidine, 40 μg/kg) was “significant increase”.

For `Cc1ccc(-c2nc3ccc(C)cn3c2CC(=O)N(C)C)cc1` [Zolpidem], the “Latency to Sleep (Mean and SEM)” value [16] was 27.0, the “Number of Sleep Episodes (Mean and SEM)” value [16] was 3.83 and the “Total sleep time normalized to vehicle” value [16] was 183.8. For the same molecule, the “Total Sleep Time (total duration of sleep in 180 min.), result in words” value (Zolpidem at the standard dose, compared to NC and Vehicle control) was “significant increase”, the “Latency to Sleep (Time of sleep onset)” value (Zolpidem, compared to normal and vehicle control) was “reduction in the sleep latency” and the “Latency to Sleep” value [17] was 27.00. For the same molecule, the “Number of Sleep Episodes” value [17] was 3.83, the “Total Sleep time Normalized to Vehicle*” value [17] was 183.82 and the “Total Sleep time” value [17] was 87.00 min. For the same molecule, the “Latency to Sleep” value [18] was 24 (2×) and 28 and 26 and 23 and 37, the “Number of Sleep Episodes” value [18] was 3 (3×) and 6 and 4 (2×) and the “Total Sleep time Normalized to Vehicle*” value [18] was 247 and 260 and 167 and 205 and 114 and 110. The “Total Sleep time” value [18] was 117 min and 123 min and 79 min and 97 min and 54 min and 52 min.
